Counter-ions that a name gives are not always drawn. Like-named read-outs stand apart in the source and are kept apart here.
How the values were obtained:
Format in all cases: biochemical
[1] = molecular target: T1, recombinant PRL-1 (Homo sapiens, UniProt Q93096); test: In vitro phosphatase assay (DiFMUP hydrolysis), PRL-1; also: test concentration or dose not given here
T1 construct: 6xHis (N, cleaved yes); made in house; host or cells: E. coli One Shot BL21 Star
T1 sequence (Q93096 1-173): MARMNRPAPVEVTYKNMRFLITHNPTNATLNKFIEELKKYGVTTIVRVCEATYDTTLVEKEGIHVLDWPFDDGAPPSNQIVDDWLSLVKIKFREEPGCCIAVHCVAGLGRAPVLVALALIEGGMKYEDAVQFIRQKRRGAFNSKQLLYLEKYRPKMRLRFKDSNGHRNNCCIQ

[2] = molecular target: T2, recombinant PRL-2 (Homo sapiens, UniProt Q12974); test: In vitro phosphatase assay (DiFMUP hydrolysis), PRL-2;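 also: PRL-2 activity read as DiFMUP hydrolysis after 20 min at room temperature with drug, enzyme first pre-reduced at 4 °C for 20 min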
T2 construct: 6xHis (N, cleaved yes); made in house; host or cells: E. coli One Shot BL21 Star
T2 sequence (Q12974 1-167): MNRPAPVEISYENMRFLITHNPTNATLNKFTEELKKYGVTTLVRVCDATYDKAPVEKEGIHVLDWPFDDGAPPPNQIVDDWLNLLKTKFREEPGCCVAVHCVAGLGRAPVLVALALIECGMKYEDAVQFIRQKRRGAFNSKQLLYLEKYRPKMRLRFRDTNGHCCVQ

[3] = molecular target: T3, recombinant PRL-3 (Homo sapiens, UniProt O75365); test: In vitro phosphatase assay (DiFMUP hydrolysis), PRL-3; also: test concentration or dose not given here
T3 construct: 6xHis (N, cleaved yes); made in house; host or cells: E. coli One Shot BL21 Star

[4] = FDA-approved drug screen, compared to DMSO

T3 sequence (O75365 whole entry): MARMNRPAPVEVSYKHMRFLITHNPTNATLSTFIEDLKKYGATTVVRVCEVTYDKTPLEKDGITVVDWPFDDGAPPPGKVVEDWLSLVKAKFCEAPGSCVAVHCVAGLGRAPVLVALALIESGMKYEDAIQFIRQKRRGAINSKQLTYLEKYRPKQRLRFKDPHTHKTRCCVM

Structure (SMILES)	% Phosphatase Activity (compared to DMSO) PRL-1 [1, 4] [%]	% Phosphatase Activity (compared to DMSO) PRL-2 [2, 4] [%]	% Phosphatase Activity (compared to DMSO) PRL-3 [3, 4] [%]	% Phosphatase Activity (compared to DMSO) PRL-1 [1] [%]	% Phosphatase Activity (compared to DMSO) PRL-2 [2] [%]	% Phosphatase Activity (compared to DMSO) PRL-3 [3] [%]
Nc1ccc(S(=O)(=O)c2ccc(N)cc2)cc1 [Dapson]	89	100	75	–	–	–
CCCCCCCCCC(=O)N[C@@H](Cc1c[nH]c2ccccc12)C(=O)N[C@H](CC(N)=O)C(=O)N[C@@H](CC(=O)O)C(=O)N[C@@H]1C(=O)NCC(=O)N[C@@H](CCCN)C(=O)N[C@@H](CC(=O)O)C(=O)N[C@H](C)C(=O)N[C@@H](CC(=O)O)C(=O)NCC(=O)N[C@H](CO)C(=O)N[C@@H]([C@H](C)CC(=O)O)C(=O)N[C@@H](CC(=O)c2ccccc2N)C(=O)O[C@@H]1C [Daptomycin]	90	75	95	–	–	–
NC(=O)C(c1ccccc1)(c1ccccc1)[C@@H]1CCN(CCc2ccc3c(c2)CCO3)C1 [Darifenacin HBr]	–	–	–	100	102	87
CC(C)CN(C[C@@H](O)[C@H](Cc1ccccc1)NC(=O)O[C@H]1CO[C@H]2OCC[C@H]21)S(=O)(=O)c1ccc(N)cc1.CCO [Darunavir Ethanolate]	99	81	80	–	–	–
Cc1nc(Nc2ncc(C(=O)Nc3c(C)cccc3Cl)s2)cc(N2CCN(CCO)CC2)n1 [Dasatinib Monohydrate]	97	79	98	–	–	–
Cc1nc(Nc2ncc(C(=O)Nc3c(C)cccc3Cl)s2)cc(N2CCN(CCO)CC2)n1 [Dasatinib]	89	88	81	–	–	–
COc1cccc2c1C(=O)c1c(O)c3c(c(O)c1C2=O)C[C@@](O)(C(C)=O)C[C@@H]3O[C@H]1C[C@H](N)[C@H](O)[C@H](C)O1 [Daunorubicin HCl]	83	92	82	–	–	–
Nc1ncn([C@H]2C[C@H](O)[C@@H](CO)O2)c(=O)n1 [Decitabine]	114	93	81	–	–	–
CNC(=O)c1ccc(Nc2ncc(C(F)(F)F)c(NCc3nccnc3N(C)S(C)(=O)=O)n2)cc1 [Defactinib (VS-6063, PF-04554878)]	98	87	89	–	–	–
O=C(O)c1ccc(-n2nc(-c3ccccc3O)nc2-c2ccccc2O)cc1 [Deferasirox]	108	104	81	–	–	–
CC(=O)OCC(=O)[C@@]12N=C(C)O[C@@H]1C[C@H]1[C@@H]3CCC4=CC(=O)C=C[C@]4(C)[C@H]3[C@@H](O)C[C@@]12C [Deflazacort]	90	102	103	–	–	–
CC(=O)C1C(=O)C=C(C)OC1=O (stereo not drawn) [Dehydroacetic acid]	99	98	90	–	–	–
C[C@H](CCC(=O)O)[C@H]1CC[C@H]2[C@@H]3C(=O)C[C@@H]4CC(=O)CC[C@]4(C)[C@H]3CC(=O)[C@]12C [Dehydrocholic acid]	103	118	80	–	–	–
CN(C)[C@@H]1C(O)=C(C(N)=O)C(=O)[C@@]2(O)C(O)=C3C(=O)c4c(O)ccc(Cl)c4[C@@H](O)[C@H]3C[C@@H]12 [Demeclocycline HCl]	90	86	67	–	–	–
C[C@H](CCC(=O)O)[C@H]1CC[C@H]2[C@@H]3CC[C@@H]4C[C@H](O)CC[C@]4(C)[C@H]3C[C@H](O)[C@]12C [Deoxycholic acid]	89	73	96	–	–	–
CC(=O)OCC(=O)[C@H]1CC[C@H]2[C@@H]3CCC4=CC(=O)CC[C@]4(C)[C@H]3CC[C@]12C [Deoxycorticosterone acetate]	84	83	74	–	–	–
C#C[C@]1(O)CC[C@H]2[C@@H]3CCC4=CCCC[C@@H]4[C@H]3C(=C)C[C@@]21CC [Desogestrel]	104	109	84	–	–	–
CC1(C)O[C@@H]2C[C@H]3[C@@H]4CCC5=CC(=O)C=C[C@]5(C)[C@H]4[C@@H](O)C[C@]3(C)[C@]2(C(=O)CO)O1 [Desonide]	98	97	84	–	–	–

Source: article PMC8119466, “A screen of FDA-approved drugs identifies inhibitors of protein tyrosine phosphatase 4A3 (PTP4A3 or PRL-3)” (Scientific Reports, 2021)
